Test system: thrips
Assay: Thrips control in cotton, seed treatment field trials (1) and (2)
Type: in vivo, thrips on cotton
Conditions: for Adult Thrips 14 DAP / Immature Thrips 14 DAP / Immature Thrips 21 DAP: cotton DP 555 BR, seed treatment; for Adult Thrips 14 DAP / Immature Thrips 14 DAP: 14 days after planting; for Adult Thrips 14 DAP: number of adult thrips; for Immature Thrips 14 DAP / Immature Thrips 21 DAP: number of immature thrips; for Immature Thrips 21 DAP / Damage 21 DAP: 21 days after planting; for Damage 21 DAP: visual plant damage rating, scale 1 to 5 (1=no damage, 3=moderate damage, 5=severe damage)
Protocol: (a) A base fungicide seed treatment formulation is prepared by diluting a concentrate containing 3.32% mefenoxam (CAS# 70630-17-0), 1.11% fludioxonil (CAS# 131341-86-1) and 6.64% azoxystrobin (CAS# 131860-33-8), into water as a carrier. […] Seed treated are allowed to air dry and shipped and stored at ambient temperature prior to planting (approximately two weeks). (b) A seed treatment formulation is prepared by diluting Cruiser® […] seed treatment insecticide (Syngenta Crop Protection, Inc), which contains 49% thiamethoxam and the base fungicide concentrate described in (a), into water as a carrier. […] Seed treated are allowed to air dry and shipped and stored at ambient temperature prior to planting (approximately two weeks). (c) An abamectin seed treatment formulation is prepared by diluting an abamectin […] seed treatment nematicide formulation containing 46.3% abamectin and the base fungicide concentrate (a), into water as a carrier. […] Seed treated were allowed to air dry and were shipped and stored at ambient temperature prior to planting (approximately two weeks). The above formulations of thiamethoxam and abamectin were combined together into water as a carrier and with the base fungicide (a). […] This formulation dilution was applied for one to two minutes at ambient temperature to approximately one kilogram of Delta and Pine Land cottonseed (DP 555 BR) in a Hege seed treater. Seed treated were allowed to air dry and were shipped and stored at ambient temperature prior to planting (approximately two weeks). Control (a) and treated cottonseed (b) (c) and (d) were planted in field plots in two separate trials (1) and (2) as follows: Cottonseed is sown (4 seeds per foot) in plots with dimensions of 2 rows (36 inch row spacing) by 30-feet in a randomized complete block layout consisting of an control check (a), abamectin plus a base fungicide (c), thiamethoxam plus a base fungicide (b) and the combination of thiamethoxam and abamectin plus a base fungicide (d). […] Thrips were collected from five random plants within each replication of each treatment by collecting thrips in alcohol and counting the numbers of thrips using a dissecting scope in the laboratory.

## CN1COCN(Cc2cnc(Cl)s2)/C1=N\[N+](=O)[O-] [Thiamethoxam (b), thiamethoxam]
14 and 21 days after planting, cotton seed treatment
  thrips control: approximately 85%
Trial (1)
  Adult Thrips 14 DAP: 5 per five plants
  Immature Thrips 14 DAP: 13 per five plants
  Immature Thrips 21 DAP: 20.25 per five plants
  Damage 21 DAP: 3.3
Trial (2)
  Immature Thrips 14 DAP: 15 per five plants

## abamectin [Abamectin (c)]
Trial (1)
  Adult Thrips 14 DAP: 13 per five plants
  Immature Thrips 14 DAP: 39.25 per five plants
  Immature Thrips 21 DAP: 50.5 per five plants
  Damage 21 DAP: 4
Trial (2)
  Immature Thrips 14 DAP: 71.5 per five plants
Trials 1 and 2, cotton seed treatment
  thrips control compared to the untreated check: ~50%
